Results: article PMC11378298 (ACS Chemical Neuroscience, 2024)
Structures can show the parent of a compound that is named as a salt.

Test system: BV-2 cell line
Test: NO release in LPS-treated BV-2 cells (DAN fluorometric assay)
Format: cell-based, mouse
Details: compound 0.1, 1, 10 μM; LPS 100 ng/mL
Description: Cell viability was determined by Presto Blue assay after 24 h. (B) Effect of compounds 11, 34, and 36 (0.1, 1, 10 μM) on NO-release (%) in LPS-treated (100 ng/mL) BV-2 cell line. NO-release was measured using a fluorometric assay with 2,3-diaminonaphthalene (DAN). (C, D) Effects of compounds 11 and 36 (0.1, 1, 10 μM) on IL-6 and TNF-α release in LPS-treated (100 ng/mL) BV-2 cell line. The IL-6 and TNF-α levels were measured using LANCE Ultra TR-FRET Detection Kit (PerkinElmer). Statistical analysis was performed using GraphPad Prism 9.0.0. All values are expressed as mean with SD. Differences among groups were evaluated by one-way ANOVA followed by posthoc analysis (Dunnett’s multiple comparison tests) vs. control group (LPS on BV-2 cells and okadaic acid on HT-22 cells) and were considered statistically significant if p < 0.05 (*p < 0.05, **p < 0.01, ***p < 0.001, and ****p < 0.0001).
An important role in the pathogenesis of AD has been attributed to neuroinflammation resulting from the activation of astrocytes and microglial cells.[55] These processes lead to increased production of proinflammatory cytokines such as TNF-α or IL-6 that activate processes, e.g., tau hyperphosphorylation, causing injury and cell death.[56] A standard model of neuroinflammation is based on lipopolysaccharide-stimulated BV-2 microglial cells. In this study, we used this model to evaluate the anti-inflammatory properties of compounds 11, 34, and 36.[57] Our evaluation focused on monitoring the levels of key inflammatory markers, including nitric oxide (NO, Figure 6B) and cytokines, TNF-α and IL-6 (Figure 6C,D).
The cells were pretreated with tested compounds for 1 h. […]
The NO level in the culture supernatants was measured using 2,3-diaminonaphthalene (DAN) reagent according to the method of Nussler et al.[88] After 15 min of incubation at room temperature, the fluorescence intensity (EX 360; EM 440 nm) was measured using a microplate reader POLARstar Omega, (BMG Labtech). The values of nitric oxide were calculated as a percentage of control (maximal response of LPS).

Row | SMILES | impact on NO release
1 | O=C(Nc1cc(-c2ccc(-c3ncon3)nc2)ccn1)C1CC1 [Compound 34, N-(6-(1,2,4-Oxadiazol-3-yl)-[3,4′-bipyridin]-2′-yl)cyclopropanecarboxamide] | did not show any impact

Test system: not listed separately
Test: Cytotoxicity in HT-22 cells (PrestoBlue)
Details: mouse, HT-22 hippocampal neuronal cells
Description: (§1) The compounds were tested at 5 concentrations (0.1, 1, 10, 50, and 100 μM).
(§2) Mouse Hippocampal Neuronal Cell Line (HT-22) was a generous gift from Dr Bartosz Pomierny of the Department of Biochemical Toxicology, Jagiellonian University Medical College, Krakow, Poland. Cells were cultured in Dulbecco’s modified Eagle’s Medium—high glucose (DMEM, Glutamax Thermo Fisher) supplemented with 10% heat-inactivated fetal bovine serum (Thermo Fisher), 100 IU/mL penicillin (Merck) and 100 μg/mL streptomycin (Merck). Cells were cultured in flasks (area 175 cm^2, Nunc), and incubated at 37 °C, 5% CO2. For the measurement of cell viability and neuroprotective effect against okadaic acid cells were placed in a 96-well culture plate (2 × 10^4 cells per well, Falcon). Before the tests, cells were grown for 24 h in the incubator (37 °C, 5% CO2).
(§3) Cell viability was evaluated using the PrestoBlue reagent (ThermoFisher), according to the manufacturer’s procedures.[87] Following 24 h of incubation with the tested molecule, PrestoBlue reagent was added to a microplate well in an amount equal to one-tenth of the remaining medium volume. The resulting mixture was incubated for 15 min at 37 °C, and the fluorescence intensity (EX 530 nm; EM 580 nm) was measured in the plate reader POLARstar Omega, (BMG Labtech).

Row | SMILES | IC50 at 24 h [nM]
2 | O=C(Nc1cc(-c2ccc(-c3ncon3)nc2)ccn1)C1CC1 [Compound 34, N-(6-(1,2,4-Oxadiazol-3-yl)-[3,4′-bipyridin]-2′-yl)cyclopropanecarboxamide] | > 100000

Test system: HT-22 cells
Test: Cytotoxicity in HT-22 cells (PrestoBlue)
Details: whole range of concentrations 0.1–100 μM
Description: as §1, §2, §3

Row | SMILES | cell viability in HT-22 cells
3 | O=C(Nc1cc(-c2ccc(-c3ncon3)nc2)ccn1)C1CC1 [Compound 34, N-(6-(1,2,4-Oxadiazol-3-yl)-[3,4′-bipyridin]-2′-yl)cyclopropanecarboxamide] | No significant decrease in cell viability

Target: GSK-3β (Homo sapiens, UniProt P49841)
Test: biochemical
Details: not given
Description: We evaluated the pharmacological properties of the compounds in vitro against GSK-3β using the GSK-3β Kinase Enzyme System followed by ADP-Glo bioluminescent assay.[50] The principle of the assay is to determine the amount of ADP formed from ATP in the kinase reaction. […] Additionally, compounds 11 and 36 in complex with GSK-3β were analyzed by the proteins’ melting temperature determination using Thermal Shift Assay (see Figure S1 in the SI).
The inhibitory activities of the tested compounds against the GSK-3β human recombinant kinase were measured using Promega’s GSK-3β Kinase Enzyme System (Promega; Madison, WI, USA), according to the provided manufacturer’s instruction, using the low-volume white polystyrene 384-well plates. The ADP-Glo Assay (Promega; Madison, WI, USA) was used for bioluminescent detection of the kinase activity. Tested compounds were prepared as 1 mM stock solutions in DMSO and diluted with the Kinase Assay Buffer before use (40 mM Tris, pH 7.5, enriched with 50 μM dithiothreitol; DTT) to obtain the desired compounds’ concentrations. The kinase enzyme, GSK-3β-substrate (derived from human muscle glycogen synthase 1), and ATP were also diluted in the assay buffer before use. At first, GSK-3β (10 ng per well) was incubated with the tested sample (10 μM in well) for 5 min. In the case of blank wells, the DMSO solution (1% in well) was used instead of the target samples’ solutions. After the incubation period, ATP (25 μM in well) and GSK-3β-substrate (0.2 μg/μL in well) were added to start the enzymatic reaction. The reaction mixture was kept at room temperature for 1 h, followed by the addition of the ADP-Glo reagent, to terminate the kinase reaction and deplete any remaining ATP. After the following 40 min—a second reagent (Kinase Detection Reagent) was applied to convert the obtained ADP to ATP and to generate light from the newly synthesized ATP using a luciferase/luciferin reaction. The mixture was kept for another 30 min at room temperature, then the luminescence was measured. Based on equation 100 – (S/B) × 100 (where S and B were the respective enzyme activities with and without the tested sample, respectively) the percent of inhibition of GSK-3β for each compound was calculated. […] Calculations were made using nonlinear regression (GraphPad Prism 9; GraphPad Software, San Diego, CA, USA) by plotting the residual enzyme activities against the applied inhibitor concentration. […] Each data point was collected in triplicate.

GSK-3β, sequence (P49841 whole entry): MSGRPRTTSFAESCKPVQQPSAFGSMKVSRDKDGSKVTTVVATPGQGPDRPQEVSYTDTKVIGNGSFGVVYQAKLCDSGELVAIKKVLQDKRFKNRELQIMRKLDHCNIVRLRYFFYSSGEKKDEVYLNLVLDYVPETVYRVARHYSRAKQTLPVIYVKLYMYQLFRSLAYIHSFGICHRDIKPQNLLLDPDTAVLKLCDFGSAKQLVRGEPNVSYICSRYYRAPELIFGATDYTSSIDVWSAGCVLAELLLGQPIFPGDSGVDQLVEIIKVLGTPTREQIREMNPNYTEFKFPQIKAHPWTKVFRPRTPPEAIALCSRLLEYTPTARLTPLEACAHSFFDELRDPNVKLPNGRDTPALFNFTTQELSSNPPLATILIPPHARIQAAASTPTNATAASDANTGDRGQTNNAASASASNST

Row | IC50 [nM] | SMILES
4 | 11300 ± 1120 | O=C(Nc1cc(C2=CCN(C[C@@H]3CCCN3)C2)ccn1)C1CC1 [(S)-15, (S)-N-(4-(1-(Pyrrolidin-2-ylmethyl)-2,5-dihydro-1H-pyrrol-3-yl)pyridin-2-yl)cyclopropanecarboxamide Hydrochloride]
5 | 599 ± 11 | CC(=O)N1CC=C(c2ccnc(NC(=O)C3CC3)c2)C1 [Compound 10, N-(4-(1-Acetyl-2,5-dihydro-1H-pyrrol-3-yl)pyridin-2-yl)cyclopropanecarboxamide]
6 | 1360 ± 110 | NCCC(=O)N1CC=C(c2ccnc(NC(=O)C3CC3)c2)C1 [Compound 12, N-(4-(1-(3-Aminopropanoyl)-2,5-dihydro-1H-pyrrol-3-yl)pyridin-2-yl)cyclopropanecarboxamide Hydrochloride]
7 | 5490 ± 363 | NCCCC(=O)N1CC=C(c2ccnc(NC(=O)C3CC3)c2)C1 [Compound 13, N-(4-(1-(4-Aminobutanoyl)-2,5-dihydro-1H-pyrrol-3-yl)pyridin-2-yl)cyclopropanecarboxamide Hydrochloride]
8 | 7720 ± 543 | O=C(Nc1cc(C2=CCN(C(=O)[C@@H]3CCCN3)C2)ccn1)C1CC1 [Compound 14, N-(4-(1-Prolyl-2,5-dihydro-1H-pyrrol-3-yl)pyridin-2-yl)cyclopropanecarboxamide]
9 | 6200 ± 163 | CS(=O)(=O)N1CC=C(c2ccnc(NC(=O)C3CC3)c2)C1 [Compound 16, N-(4-(1-(Methylsulfonyl)-2,5-dihydro-1H-pyrrol-3-yl)pyridin-2-yl)cyclopropanecarboxamide]
10 | 9270 ± 467 | CCCS(=O)(=O)N1CC=C(c2ccnc(NC(=O)C3CC3)c2)C1 [Compound 17, N-(4-(1-(Propylsulfonyl)-2,5-dihydro-1H-pyrrol-3-yl)pyridin-2-yl)cyclopropanecarboxamide]
11 | 3250 ± 83 | O=C(Nc1cc(C2=CCN(S(=O)(=O)C3CCCC3)C2)ccn1)C1CC1 [Compound 18, N-(4-(1-(Cyclopentylsulfonyl)-2,5-dihydro-1H-pyrrol-3-yl)pyridin-2-yl)cyclopropanecarboxamide]
12 | 1370 ± 44 | NCCS(=O)(=O)N1CC=C(c2ccnc(NC(=O)C3CC3)c2)C1 [Compound 19, N-(4-(1-((2-Aminoethyl)sulfonyl)-2,5-dihydro-1H-pyrrol-3-yl)pyridin-2-yl)cyclopropanecarboxamide Hydrochloride]
13 | 9990 ± 406 | NCCCS(=O)(=O)N1CC=C(c2ccnc(NC(=O)C3CC3)c2)C1 [Compound 20, N-(4-(1-((3-Aminopropyl)sulfonyl)-2,5-dihydro-1H-pyrrol-3-yl)pyridin-2-yl)cyclopropanecarboxamide Hydrochloride]
14 | 1130 ± 37 | N#Cc1ccc(-c2ccnc(NC(=O)C3CC3)c2)cc1 [Compound 22, N-(4-(4-Cyanophenyl)pyridin-2-yl)cyclopropanecarboxamide]
15 | 952 ± 21 | N#Cc1cccc(-c2ccnc(NC(=O)C3CC3)c2)c1 [Compound 23, N-(4-(3-Cyanophenyl)pyridin-2-yl)cyclopropanecarboxamide]
16 | 212 ± 7 | N#Cc1ccc(-c2ccnc(NC(=O)C3CC3)c2)cn1 [Compound 24, N-(6-Cyano-[3,4′-bipyridin]-2′-yl)cyclopropanecarboxamide]
17 | 146 ± 5 | N#Cc1ccc(-c2ccnc(NC(=O)C3CC3)c2)s1 [Compound 26, N-(4-(5-Cyanothiophen-2-yl)pyridin-2-yl)cyclopropanecarboxamide]
18 | 257 ± 5 | O=C(Nc1cc(-c2ccc(-c3ncon3)cc2)ccn1)C1CC1 [Compound 32, N-(4-(4-(1,2,4-Oxadiazol-3-yl)phenyl)pyridin-2-yl)cyclopropanecarboxamide]
19 | 898 ± 32 | O=C(Nc1cc(-c2cccc(-c3ncon3)c2)ccn1)C1CC1 [Compound 33, N-(4-(3-(1,2,4-Oxadiazol-3-yl)phenyl)pyridin-2-yl)cyclopropanecarboxamide]
20 | 809 ± 28 | O=C(Nc1cc(-c2ccnc(-c3ncon3)c2)ccn1)C1CC1 [Compound 35, N-(2′-(1,2,4-Oxadiazol-3-yl)-[4,4′-bipyridin]-2-yl)cyclopropanecarboxamide]
21 | 5220 ± 301 | O=C(Nc1cc(-c2ccc(-c3ccccc3)s2)ccn1)C1CC1 [Compound 37, N-(4-(5-Phenylthiophen-2-yl)pyridin-2-yl)cyclopropanecarboxamide]

Row | SMILES | IC50 [nM]
22 | O=C(Nc1cc(-c2ccc(-c3ncon3)nc2)ccn1)C1CC1 [Compound 34, N-(6-(1,2,4-Oxadiazol-3-yl)-[3,4′-bipyridin]-2′-yl)cyclopropanecarboxamide] | 185 ± 3

Same assay, conditions: read-out: Percent of enzyme inhibition at 10 μM of inhibitor concentration

Row | inhibition at 10 µM [%] | SMILES
23 | 17.8 ± 1.7 | O=C(Nc1cc(C2=CCN(C[C@H]3CCCN3)C2)ccn1)C1CC1 [(R)-15, (R)-N-(4-(1-(Pyrrolidin-2-ylmethyl)-2,5-dihydro-1H-pyrrol-3-yl)pyridin-2-yl)cyclopropanecarboxamide hydrochloride]
24 | 34.4 ± 2.8 | N#Cc1cc(-c2ccnc(NC(=O)C3CC3)c2)ccn1 [Compound 25, N-(2′-Cyano-[4,4′-bipyridin]-2-yl)cyclopropanecarboxamide]

Test system: not listed separately
Test: Cytotoxicity in BV-2 cells (PrestoBlue)
Details: mouse, BV-2 microglial cells
Description: as §1
Mouse microglial cells (BV-2) were a generous gift from Professor Bozena Kaminska-Kaczmarek of the Laboratory of Molecular Neurobiology, Neurobiology Center, Nencki Institute of Experimental Biology, Polish Academy of Sciences, Warsaw, Poland. Cells were cultured in Dulbecco’s modified Eagle’s Medium-high glucose (DMEM, Glutamax Thermo Fisher) supplemented with 10% heat-inactivated fetal bovine serum (Thermo Fisher), 100 IU/mL penicillin (Merck) and 100 μg/mL streptomycin (Merck). Cells were cultured in flasks (area 175 cm^2, Nunc), and incubated at 37 °C, 5% CO2. To evaluate the level of NO, IL-6, and TNF-α and the effectiveness of the compounds tested, BV-2 microglia cells were cultured in a 96-well culture plate (5 × 10^4 cells per well, Falcon). For the measurement of cell viability and cell membrane damage, cells were placed in a 96-well culture plate (2 × 10^4 cells per well, Falcon). Before the tests, cells were grown for 24 h in the incubator (37 °C, 5% CO2).
as §3

Row | SMILES | IC50 at 24 h [nM]
25 | O=C(Nc1cc(-c2ccc(-c3ncon3)nc2)ccn1)C1CC1 [Compound 34, N-(6-(1,2,4-Oxadiazol-3-yl)-[3,4′-bipyridin]-2′-yl)cyclopropanecarboxamide] | 39200 ± 5200
